“Also recorded” adds a separate entry of the source.
Tests used:
ROCK = assay: SelectScreen 40 kinase panel; type: biochemical, human; details: 10 μM, Km ATP
Description: The SelectScreen™ kinase inhibitor assay service was used (Invitrogen Ltd., Paisley, UK) to investigate the ability of the compounds of the invention to inhibit a large number of different kinases. This commercially provided service allows assessment of the ability of a compound (or compounds) of interest to inhibit a broad panel of human kinases. Further details regarding this service are available on the Invitrogen website at:
In the present study YA1 (a compound in accordance with formula (V)) was investigated for its ability to inhibit the activity of the 40 kinases shown in panel B of FIG. 2. The compounds of the invention were diluted in DMSO at a concentration of 10 mM and single-point kinase inhibitory activities were measured at 10 μM and Km ATP concentration.

[1] = system: GEF16 transformed NIH3T3 cells; assay: Flow cytometry of DNA content (cell cycle, sub G1); type: cell-based, mouse
Protocol: NIH3T3 cells with or without drug treatments (with Y27632 or the compounds of the invention) were harvested at various time points and cell counts carried out to confirm that 1×10^6 cells were present for each cytometric analysis. Cells were washed with PBS, fixed with 70% ice-cold ethanol, pelleted and DNA stained by incubating the cells with propidium iodide ([…]) (Sigma-Aldrich, Poole, UK) at 4° C. for 45 min. Cells were then washed twice with ice-cold PBS and resuspended in 400 μl of PBS. The DNA content during different phases of the cell cycle was then determined by flow cytometry (BD Biosciences, Oxford, UK). Each profile shown was representative of three separate experiments.

HGK (MAP4K4) = HGK (MAP4K4) (Homo sapiens, UniProt O95819); assay: SelectScreen in vitro kinase profiling, single point
Sequence of HGK (MAP4K4) (O95819 whole entry): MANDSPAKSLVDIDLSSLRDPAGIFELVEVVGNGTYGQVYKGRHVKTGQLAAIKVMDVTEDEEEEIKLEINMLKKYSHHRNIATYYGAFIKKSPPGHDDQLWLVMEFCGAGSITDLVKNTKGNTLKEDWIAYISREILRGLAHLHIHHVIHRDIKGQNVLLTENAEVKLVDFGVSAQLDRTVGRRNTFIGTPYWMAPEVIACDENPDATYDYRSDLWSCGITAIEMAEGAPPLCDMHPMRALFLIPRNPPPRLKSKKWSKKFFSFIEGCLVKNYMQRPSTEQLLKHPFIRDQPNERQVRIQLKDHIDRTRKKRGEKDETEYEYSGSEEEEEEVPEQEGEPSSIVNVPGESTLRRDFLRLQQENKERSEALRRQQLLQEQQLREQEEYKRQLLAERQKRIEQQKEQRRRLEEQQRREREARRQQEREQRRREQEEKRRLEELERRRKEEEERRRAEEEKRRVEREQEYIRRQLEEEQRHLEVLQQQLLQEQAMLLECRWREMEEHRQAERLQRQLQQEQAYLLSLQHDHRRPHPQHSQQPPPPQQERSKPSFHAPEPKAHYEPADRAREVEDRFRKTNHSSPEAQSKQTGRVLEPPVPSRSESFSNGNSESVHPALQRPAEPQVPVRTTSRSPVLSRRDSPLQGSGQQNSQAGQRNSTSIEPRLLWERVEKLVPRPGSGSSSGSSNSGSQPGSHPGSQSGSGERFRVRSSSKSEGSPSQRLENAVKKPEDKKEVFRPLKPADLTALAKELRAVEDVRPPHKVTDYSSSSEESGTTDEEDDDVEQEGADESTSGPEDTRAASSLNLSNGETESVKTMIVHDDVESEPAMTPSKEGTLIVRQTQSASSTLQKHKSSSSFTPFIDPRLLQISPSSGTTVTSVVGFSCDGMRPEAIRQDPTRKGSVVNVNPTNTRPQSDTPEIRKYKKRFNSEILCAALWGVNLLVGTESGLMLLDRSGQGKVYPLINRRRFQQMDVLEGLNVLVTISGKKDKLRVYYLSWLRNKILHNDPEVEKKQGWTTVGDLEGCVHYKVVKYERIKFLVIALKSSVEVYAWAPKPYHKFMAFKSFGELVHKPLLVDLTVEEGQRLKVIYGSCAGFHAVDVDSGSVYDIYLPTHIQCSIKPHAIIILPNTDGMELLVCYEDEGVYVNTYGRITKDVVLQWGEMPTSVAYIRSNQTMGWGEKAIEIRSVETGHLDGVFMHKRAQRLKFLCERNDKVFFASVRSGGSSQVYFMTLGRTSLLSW

[2] = system: polyclonal Ras transformed NIH3T3 cells; assay: Co-culture of Ras transformed cells with non-transformed cells / Ras colony formation; type: cell-based, mouse
Protocol: FIG. 5 illustrates that the growth suppressive effects of YA1 on single transformed colony derived GEF16 NIH3T3 cells and polyclonal Ras transformed NIH3T3 cells are more pronounced when these are co-cultured with non-transformed cells. In FIG. 5A single transformed colonies were picked from 10 day cultures of GEF16 polyclonal NIH3T3 cells and expanded. These cells were then seeded at 2.0×10^5 cells per 30 mm dish and treated with 10 μM of YA1 or DMSO control either immediately or following 10 days in culture. Duplicate wells were harvested for flow cytometry. In FIG. 5B a total of 2×10^5 cells per well were plated consisting of increasing numbers of non-transformed vector cells co-cultured with decreasing numbers of single transformed colony derived GEF16 cells. These were treated with 10 μM of either YA1 or DMSO for 10 days. […]
Transformed cell populations were produced by transfection with constructs causing cellular expression of GEF16 or Ras as follows. The full-length GEF16 open reading frame (Accession NM_014448) was PCR amplified, sequence verified and subcloned into the mammalian expression vector pCMVTag (Invitrogen Ltd., Paisley, UK) to produce a construct pCMVTag-GEF16 cDNA. […]

Aurora A = biological target: T1, Aurora A (Homo sapiens, UniProt O14965); assay: SelectScreen in vitro kinase profiling, single point
T1 sequence (O14965 1-403): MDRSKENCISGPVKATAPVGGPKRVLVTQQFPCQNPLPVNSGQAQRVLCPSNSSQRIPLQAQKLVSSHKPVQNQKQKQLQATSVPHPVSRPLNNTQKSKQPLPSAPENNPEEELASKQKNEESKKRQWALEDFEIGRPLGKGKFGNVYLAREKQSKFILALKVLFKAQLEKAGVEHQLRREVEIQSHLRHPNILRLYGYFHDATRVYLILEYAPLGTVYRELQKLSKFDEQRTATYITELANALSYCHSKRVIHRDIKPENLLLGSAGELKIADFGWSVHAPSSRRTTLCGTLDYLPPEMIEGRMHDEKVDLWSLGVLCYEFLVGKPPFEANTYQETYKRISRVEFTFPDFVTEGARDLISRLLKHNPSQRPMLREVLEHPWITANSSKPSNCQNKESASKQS

p38 alpha (MAPK14) = p38 alpha (MAPK14) (Homo sapiens, UniProt Q16539); assay: as above
Sequence of p38 alpha (MAPK14) (Q16539 whole entry): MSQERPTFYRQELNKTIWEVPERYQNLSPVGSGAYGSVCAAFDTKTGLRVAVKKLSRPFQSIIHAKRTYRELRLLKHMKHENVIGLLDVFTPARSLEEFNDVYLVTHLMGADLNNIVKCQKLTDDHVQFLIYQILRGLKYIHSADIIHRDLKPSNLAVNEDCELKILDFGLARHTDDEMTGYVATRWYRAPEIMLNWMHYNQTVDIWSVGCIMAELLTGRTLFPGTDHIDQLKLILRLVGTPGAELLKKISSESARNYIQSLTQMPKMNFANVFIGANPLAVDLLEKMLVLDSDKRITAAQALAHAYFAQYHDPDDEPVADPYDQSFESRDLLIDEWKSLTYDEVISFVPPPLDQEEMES

[3] = system: single transformed colony derived GEF16 NIH3T3 cells; assay: Growth of cell populations derived from single GEF16 transformed colonies; type: cell-based, mouse
Protocol: FIG. 5 illustrates that the growth suppressive effects of YA1 on single transformed colony derived GEF16 NIH3T3 cells and polyclonal Ras transformed NIH3T3 cells are more pronounced when these are co-cultured with non-transformed cells. In FIG. 5A single transformed colonies were picked from 10 day cultures of GEF16 polyclonal NIH3T3 cells and expanded. These cells were then seeded at 2.0×10^5 cells per 30 mm dish and treated with 10 μM of YA1 or DMSO control either immediately or following 10 days in culture. Duplicate wells were harvested for flow cytometry. In FIG. 5B a total of 2×10^5 cells per well were plated consisting of increasing numbers of non-transformed vector cells co-cultured with decreasing numbers of single transformed colony derived GEF16 cells. These were treated with 10 μM of either YA1 or DMSO for 10 days. In producing the results shown in FIG. 5C the same co-culture experiment described in connection with FIG. 5B was carried out substituting polyclonal Ras transformed NIH3T3 cells for GEF16 transformed cells.
Single transformed colonies were picked from GEF16 polyclonal NIH3T3 cells and expanded according to the methods described above. Expanded cell populations were plated and a compound of the invention (YA1) added either immediately or after 10 days when the cells were post-confluent.

[4] = additional single point analysis, 10 μM

ROCK inhibitory activity (ROCK): ~40% | inhibition at 10 µM (HGK (MAP4K4); read-out: inhibitory activity against HGK (MAP4K4)): 63% | inhibition at 10 µM (Aurora A; read-out: inhibitory activity against Aurora A): 44% | inhibition at 10 µM (p38 alpha (MAPK14); read-out: inhibitory activity against p38 alpha (MAPK14)): 72%
Compound: CC(C)(C)OC(=O)NCc1ccc(C(=O)Nc2ccncc2)cc1 [YA1, 4-(Pyridin-4-ylcarbamoyl)benzylcarbamic acid tert-butyl ester]
cell cycle / apoptotic sub G1 population ([1]; polyclonal GEF16 cells, 10 μM, FIG. 3C): no evidence of alterations in cell cycle or the accumulation of an apoptotic sub G1 population | cell cycle / apoptotic sub G1 population ([1]; single colony derived GEF16 cells, treated pre or post confluence): no effect on the cell cycle and no apoptotic sub G1 population is seen | activity against HGK (HGK (MAP4K4); [4]): significant activity against p38, HGK and Aurora A | growth suppression / colony formation of Ras transformed NIH3T3 cells ([2]; 10 μM, 10 days, co-culture with non-transformed cells): same growth suppressive effects on Ras transformed NIH3T3 cell colonies as with GEF16 transformed cells; also recorded: highly effective at preventing the formation of Ras transformed NIH3T3 colonies | contact inhibition and polarity of Ras transformed cells (phase contrast images) ([2]; YA1 treated): regain both contact inhibition and polarity | activity against Aurora A (Aurora A; [4]): significant activity against p38, HGK and Aurora A | activity against p38 (p38 alpha (MAPK14); [4]): significant activity against p38, HGK and Aurora A | effect on single colony derived GEF16 cells, added to post-confluent cultures ([3]; 10 μM, added after 10 days in culture): no discernible effect when compared to controls | saturation density of single colony derived GEF16 cells, added to low density cultures ([3]; 10 μM, added immediately): modest effect when added to low density cultures | effect on single colony derived GEF16 transformed cells grown in the absence of non-transformed cells ([3]; FIG. 5A): little or no effect

Reference: US20130046098A1, “KINASE INHIBITORS” (THE UNIVERSITY OF MANCHESTER, priority 2009, published 2013)
